In US20090036422A1 (priority 2007, published 2009) one finds Kb data, which are given here for 26 compounds.

Usually Kb stands for the affinity of an antagonist, worked out from how it opposes an agonist. Read a low Kb as a more potent antagonist.

The assay addresses T1, human orexin-2 (hOX2) receptor (Homo sapiens, UniProt O43614).
T1 construct: expressed in transfected cells
T1 sequence (O43614 1-444): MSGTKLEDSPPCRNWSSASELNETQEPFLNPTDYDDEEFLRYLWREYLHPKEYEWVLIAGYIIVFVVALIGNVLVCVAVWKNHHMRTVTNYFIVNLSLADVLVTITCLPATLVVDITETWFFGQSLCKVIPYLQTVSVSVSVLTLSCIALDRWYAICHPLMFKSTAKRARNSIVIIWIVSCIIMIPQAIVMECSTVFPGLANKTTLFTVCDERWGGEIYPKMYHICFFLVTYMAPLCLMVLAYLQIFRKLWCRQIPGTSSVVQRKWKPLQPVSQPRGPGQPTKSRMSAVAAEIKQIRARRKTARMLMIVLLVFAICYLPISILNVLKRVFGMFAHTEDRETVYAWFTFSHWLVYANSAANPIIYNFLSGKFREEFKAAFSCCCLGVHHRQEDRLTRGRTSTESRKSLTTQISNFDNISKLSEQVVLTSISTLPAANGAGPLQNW
Nature of the assay: Intracellular Ca2+ mobilization assay (FLIPR), CHO(dHFr-) cells expressing hOX2, orexin-A at EC80 as agonist. It counts as cell-based. To be noted: Kb=IC50/(1+[A]/EC50); CHO(dHFr-)-OX2R cells, antagonist applied 25 min before orexin-A EC80. The method, then:
Intracellular Ca^2+ Mobilization Assay
The Chinese Hamster Ovary (dHFr−) mutant cell line stably expressing human orexin-1 (hOX1) or human orexin-2 (hOX2) receptors were maintained in Dulbecco's Modified Eagle Medium (1×) with GlutaMax™ 1, 4500 mg/L D-Glucose and Sodium Pyruvate (Catalog No. 31966-021, Invitrogen, Carlsbad, Calif.), 5% dialyzed fetal calf serum (Catalog No. 26400-044), 100 μg/ml penicillin and 100 μg/ml streptomycin. The cells were seeded at 5×10^4 cells/well in the poly-D-lysine treated, 96-well, black/clear-bottomed plates (Catalog No. BD356640, BD Biosciences, Palo Alto, Calif.). 24 h later, the cells were loaded for 1 h at 37° C. with 4 μM Flou-4 acetoxymethyl ester (Catalog No. F-14202, Molecular Probes, Eugene, Oreg.) in FLIPR buffer (1×HBSS, 20 mM HEPES, 2.5 mM Probenecid). Hanks' Balanced Salt Solution (HBSS) (10×) (catalog No. 14065-049) and HEPES (1M) (catalog No. 15630-056) were purchased from Invitrogen, Carlsbad, Calif. Probenecid (250 mM) (catalog No. P8761) was from Sigma, Buchs, Switzerland. The cells were washed five times with FLIPR buffer to remove excess dye and intracellular calcium mobilization, [Ca^2+]i were measured using a Fluorometric Imaging Plate Reader (FLIPR-96, Molecular Devices, Menlo Park, Calif.) as described previously (Malherbe et al., Mol. Pharmacol., 64, 823-832, 2003). Orexin A (catalog No. 1455, Toris Cookson Ltd, Bristol, UK) was used as agonist. Orexin A (50 mM stock solution in DMSO) was diluted in FLIPR buffer +0.1% BSA. The EC50 and EC80 values of orexin-A were measured daily from standard agonist concentration-response curves in CHO(dHFr−) —OX1R and —OX2R cell lines. All compounds were dissolved in 100% DMSO. Inhibition curves were determined by addition of 11 concentrations (0.0001-10 μM) of inhibitory compounds and using EC80 value of orexin-A as agonist (a concentration which gave 80% of max agonist response, determined daily). The antagonists were applied 25 min (incubation at 37° C.) before the application of the agonist. Responses were measured as peak increase in fluorescence minus basal, normalized to the maximal stimulatory effect induced by EC80 value of orexin-A or orexin-B. Inhibition curves were fitted according to the Hill equation: y=100/(1+(x/IC50)^nH), where nH=slope factor using Excel-fit 4 software (Microsoft).
Kb values were calculated according to the following equation Kb=IC50/(1+[A]/EC50) where A is the concentration of agonist added which is very close to agonist EC80 value, and IC50 and EC50 values were derived from the antagonist inhibition and orexin-A or B agonist curves, respectively.
In general terms: Calcium flux is commonly read through the fluorescence of an indicator in the cells.
The compound `COc1cc(N(CCc2ccc(C(F)(F)F)cc2)C(=O)C(N)c2ccccc2)ccc1F` (centres unmarked) [Example 104, 2-Amino-N-(4-fluoro-3-methoxy-phenyl)-2-phenyl-N-[2-(4-trifluoromethyl-phenyl)-ethyl]-acetamide] returned a Kb of 0.022 µM.
On to `NC(C(=O)N(CCc1ccc(C(F)(F)F)cc1)c1ccc(OC(F)F)cc1)c1ccccc1` (centres unmarked) [Example 105, 2-Amino-N-(4-difluoromethoxy-phenyl)-2-phenyl-N-[2-(4-trifluoromethyl-phenyl)-ethyl]-acetamide], for which the Kb was determined as 0.0414 µM.
Compound `Cc1ccc(CCN(C(=O)C(NCCO)c2ccccc2)c2ccc(C)c(C)c2)cc1` (centres unmarked) [Example 106, N-(3,4-Dimethyl-phenyl)-2-(2-hydroxy-ethylamino)-2-phenyl-N-(2-p-tolyl-ethyl)-acetamide] showed a Kb of 0.0071 µM.
Consider `NC(C(=O)N(CCc1ccc(C(F)(F)F)cc1)c1cccc(OC(F)F)c1)c1ccccc1` (centres unmarked) [Example 107, 2-Amino-N-(3-difluoromethoxy-phenyl)-2-phenyl-N-[2-(4-trifluoromethyl-phenyl)-ethyl]-acetamide], for which the Kb came out at 0.0509 µM.
The value for `COc1ccc(Cl)c(N(CCc2ccc(C(F)(F)F)cc2)C(=O)C(N)c2ccccc2)c1` (centres unmarked) [Example 110, 2-Amino-N-(2-chloro-5-methoxy-phenyl)-2-phenyl-N-[2-(4-trifluoromethyl-phenyl)-ethyl]-acetamide] was 0.0335 µM; that for `COCC(C)NC(C(=O)N(CCc1ccc(C)cc1)c1ccc(C)c(C)c1)c1ccccc1` (centres unmarked) [Example 120, N-(3,4-Dimethyl-phenyl)-2-(2-methoxy-1-methyl-ethylamino)-2-phenyl-N-(2-p-tolyl-ethyl)-acetamide] was 0.0446 µM.
With `Cc1ccc(CCN(C(=O)C(NCC(C)O)c2ccccc2)c2ccc(C)c(C)c2)cc1` (centres unmarked) [Example 121, N-(3,4-Dimethyl-phenyl)-2-(2-hydroxy-propylamino)-2-phenyl-N-(2-p-tolyl-ethyl)-acetamide] the figure was 0.0109 µM; with `Cc1ccc(CCN(C(=O)C(NC(C)CO)c2ccccc2)c2ccc(C)c(C)c2)cc1` (centres unmarked) [Example 122, N-(3,4-Dimethyl-phenyl)-2-(2-hydroxy-1-methyl-ethylamino)-2-phenyl-N-(2-p-tolyl-ethyl)-acetamide], 0.0225 µM.
Compound `Cc1ccc(CCN(C(=O)C(NC(CO)C(C)C)c2ccccc2)c2ccc(C)c(C)c2)cc1` (centres unmarked) [Example 123, N-(3,4-Dimethyl-phenyl)-2-(1-hydroxymethyl-2-methyl-propylamino)-2-phenyl-N-(2-p-tolyl-ethyl)-acetamide] gave a Kb of 0.0727 µM.
The value for `CCC(COC)NC(C(=O)N(CCc1ccc(C)cc1)c1ccc(C)c(C)c1)c1ccccc1` (centres unmarked) [Example 125, N-(3,4-Dimethyl-phenyl)-2-(1-methoxymethyl-propylamino)-2-phenyl-N-(2-p-tolyl-ethyl)-acetamide] was 0.0267 µM.
The value for `CC(=O)NCCNC(C(=O)N(CCc1ccc(C)cc1)c1ccc(C)c(C)c1)c1ccccc1` (centres unmarked) [Example 126, 2-(2-Acetylamino-ethylamino)-N-(3,4-dimethyl-phenyl)-2-phenyl-N-(2-p-tolyl-ethyl)-acetamide] was 0.0086 µM.
`Cc1ccc(CCN(C(=O)C(NCC2CCCO2)c2ccccc2)c2ccc(C)c(C)c2)cc1` (centres unmarked) [Example 127, N-(3,4-Dimethyl-phenyl)-2-phenyl-2-[(tetrahydro-furan-2-ylmethyl)-amino]-N-(2-p-tolyl-ethyl)-acetamide] returned a Kb of 0.0222 µM.
The value for `COC(CNC(C(=O)N(CCc1ccc(C)cc1)c1ccc(C)c(C)c1)c1ccccc1)OC` (centres unmarked) [Example 129, 2-(2,2-Dimethoxy-ethylamino)-N-(3,4-dimethyl-phenyl)-2-phenyl-N-(2-p-tolyl-ethyl)-acetamide] was 0.0173 µM; that for `Cc1ccc(CCN(C(=O)C(NCc2ccco2)c2ccccc2)c2ccc(C)c(C)c2)cc1` (centres unmarked) [Example 130, N-(3,4-Dimethyl-phenyl)-2-[(furan-2-ylmethyl)-amino]-2-phenyl-N-(2-p-tolyl-ethyl)-acetamide] was 0.0416 µM; that for `CCC(O)CNC(C(=O)N(CCc1ccc(C)cc1)c1ccc(C)c(C)c1)c1ccccc1` (centres unmarked) [Example 131, N-(3,4-Dimethyl-phenyl)-2-(2-hydroxy-butylamino)-2-phenyl-N-(2-p-tolyl-ethyl)-acetamide] was 0.022 µM.
Turning to `Cc1ccc(CCN(C(=O)C(NC(C)(C)CO)c2ccccc2)c2ccc(C)c(C)c2)cc1` (centres unmarked) [Example 132, N-(3,4-Dimethyl-phenyl)-2-(2-hydroxy-1,1-dimethyl-ethylamino)-2-phenyl-N-(2-p-tolyl-ethyl)-acetamide], the antagonist dissociation constant (Kb) came out at 0.0642 µM. This Kb lies about 2.9-fold higher than the previous one.
For `Cc1ccc(CCN(C(=O)C(NCC2OCCO2)c2ccccc2)c2ccc(C)c(C)c2)cc1` (centres unmarked) [Example 133, N-(3,4-Dimethyl-phenyl)-2-[([1,3]dioxolan-2-ylmethyl)-amino]-2-phenyl-N-(2-p-tolyl-ethyl)-acetamide], the Kb turned out to be 0.007 µM. Against the preceding compound, the Kb is about 9.2-fold lower.
For the compound `Cc1ccc(CCN(C(=O)C(NC[C@@H]2CCCO2)c2ccccc2)c2ccc(C)c(C)c2)cc1` (stereo partly drawn) [Example 134, N-(3,4-Dimethyl-phenyl)-2-phenyl-2-{[(S)-1-(tetrahydro-furan-2-yl)methyl]-amino}-N-(2-p-tolyl-ethyl)-acetamide], the Kb turned out to be 0.0161 µM. This Kb lies about 2.3-fold higher than the previous one.
For the compound `C=COCCNC(C(=O)N(CCc1ccc(C)cc1)c1ccc(C)c(C)c1)c1ccccc1` (centres unmarked) [Example 135, N-(3,4-Dimethyl-phenyl)-2-phenyl-N-(2-p-tolyl-ethyl)-2-(2-vinyloxy-ethylamino)-acetamide], the Kb is 0.0379 µM.
The value for `CCOCCNC(C(=O)N(CCc1ccc(C)cc1)c1ccc(C)c(C)c1)c1ccccc1` (centres unmarked) [Example 136, N-(3,4-Dimethyl-phenyl)-2-(2-ethoxy-ethylamino)-2-phenyl-N-(2-p-tolyl-ethyl)-acetamide] was 0.0201 µM; that for `NC(C(=O)N(CCc1ccc(C(F)(F)F)cc1)c1ccc2c(c1)CCCC2)c1ccccc1` (centres unmarked) [Example 137, 2-Amino-2-phenyl-N-(5,6,7,8-tetrahydro-naphthalen-2-yl)-N-[2-(4-trifluoromethyl-phenyl)-ethyl]-acetamide] was 0.0364 µM; that for `Cc1ccc(N(CCc2ccc(C(F)(F)F)cc2)C(=O)[C@@H](N)c2ccccc2)cc1C` [Example 138, (S)-2-Amino-N-(3,4-dimethyl-phenyl)-2-phenyl-N-[2-(4-trifluoromethyl-phenyl)-ethyl]-acetamide] was 0.0364 µM.
The value for `CCOc1ccc(N(CCc2ccc(C(F)(F)F)cc2)C(=O)[C@@H](N)c2ccccc2)cc1OCC` [Example 140, (S)-2-Amino-N-(3,4-diethoxy-phenyl)-2-phenyl-N-[2-(4-trifluoromethyl-phenyl)-ethyl]-acetamide] was 0.0127 µM.
The value for `Cc1ccc(CCN(C(=O)[C@@H](N)c2ccc(F)cc2)c2ccc(C)c(C)c2)cc1` [Example 144, (S)-2-Amino-N-(3,4-dimethyl-phenyl)-2-(4-fluoro-phenyl)-N-(2-p-tolyl-ethyl)-acetamide] was 0.0174 µM.
`Cc1ccc(N(CCc2ccc(C(F)(F)F)cc2)C(=O)[C@@H](N)c2ccccc2)cc1` [Example 146, (S)-2-Amino-2-phenyl-N-p-tolyl-N-[2-(4-trifluoromethyl-phenyl)-ethyl]-acetamide] had an antagonist equilibrium constant (Kb) of 0.0335 µM.
The value for `N[C@H](C(=O)N(CCc1ccc(C(F)(F)F)cc1)c1ccc(OC(F)F)cc1)c1ccccc1` [Example 148, (S)-2-Amino-N-(4-difluoromethoxy-phenyl)-2-phenyl-N-[2-(4-trifluoromethyl-phenyl)-ethyl]-acetamide] was 0.0217 µM.
